Publication doi:10.1101/2020.10.13.337584v1 (bioRxiv, 2020)

Experiments:
[1] = test system: SARS-CoV2 (SARS CoV-2 USA_WA1/2020) in VERO E6 cells; type: cell-based
[2] = Health-related side-effects after daily intranasal administration; type: in vivo; details: 0.1 mg/Kg intranasal daily for 10 days, BALB/C mice

With `CC(C)[C@H](NC(=O)CNC(=O)[C@H](CC(N)=O)NC(=O)[C@@H](NC(=O)[C@@H]1CCCN1C(=O)[C@H](CCC(N)=O)NC(=O)[C@H](Cc1ccccc1)NC(=O)CNC(=O)[C@H](Cc1ccc(O)cc1)NC(=O)CCCC[C@@H]1SC[C@@H]2NC(=O)N[C@@H]21)[C@@H](C)O)C(=O)NCC(=O)N[C@@H](Cc1ccc(O)cc1)C(=O)N[C@@H](CCC(N)=O)C(=O)N1CCC[C@H]1C(=O)O` [KEpTide 1] the “Grey density (1:20) of crystal violet staining of agar monolayer” value [1] was 34 ± 32.73, the “Skin roughness or diarrhea at the end of day 10” value [2] was “did not see other health issue” and the “Effect on heart rate” value ([2]; n=6 per group, p = 0.0758) was “did not cause any loss”. The “Effect on respiratory health (oxygen saturation)” value ([2]; n=6 per group, p = 0.3217) was “did not cause any loss” and the “Effect on body temperature” value ([2]; n=6 per group, p = 0.5541) was “did not cause any loss”.
